pEC50: −log10 of the molar value. Calls of active or inactive are those of the source. The rule behind the calls is not given here.
Key:
[1] = target: T1, G-protein coupled receptor 39 (Homo sapiens, UniProt O43194); experiment: Agonist activity at human GPR39 receptor expressed in CHO cells assessed as increase in ca2+ flux; format: functional, cell-based
T1 sequence (O43194 whole entry): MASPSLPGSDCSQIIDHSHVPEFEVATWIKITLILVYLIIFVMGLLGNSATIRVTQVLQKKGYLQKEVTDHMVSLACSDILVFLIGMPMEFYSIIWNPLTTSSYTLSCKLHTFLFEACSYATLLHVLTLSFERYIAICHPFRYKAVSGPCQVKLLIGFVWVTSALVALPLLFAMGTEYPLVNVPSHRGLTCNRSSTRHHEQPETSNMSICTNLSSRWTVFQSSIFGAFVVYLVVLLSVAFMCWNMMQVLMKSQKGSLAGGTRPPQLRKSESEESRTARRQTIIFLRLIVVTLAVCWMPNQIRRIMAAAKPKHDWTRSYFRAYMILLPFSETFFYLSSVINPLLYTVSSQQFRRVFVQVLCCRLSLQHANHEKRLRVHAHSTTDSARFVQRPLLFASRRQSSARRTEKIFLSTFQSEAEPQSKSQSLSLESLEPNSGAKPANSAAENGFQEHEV

[2] = target: T2, G-protein coupled receptor 39 (Homo sapiens) (UniProt O43194); experiment: Agonist activity at human GPR39 receptor expressed in CHO cells assessed as increase in ca2+ flux relative to Zn2+; format: functional, cell-based
T2 sequence (whole entry): T1 sequence (O43194 whole entry)

[3] = target: T1, G-protein coupled receptor 39; experiment: Positive allosteric activity at human GPR39 receptor expressed in CHO cells assessed as increase in zn2+ induced ca2+ flux; format: cell-based
[4] = target: T2, G-protein coupled receptor 39 (Homo sapiens); experiment: Positive allosteric activity at human GPR39 receptor expressed in CHO cells assessed as increase in zn2+ induced ca2+ flux relative to Zn2+; format: cell-based; settings: filed as positive allosteric modulator
SH-SY5Y [5] = experiment: Neuroprotective activity against 6-OHDA-induced PD model of human SH-SY5Y cells assessed as increase in cell viability; format: functional, cell-based
SH-SY5Y [6] = experiment: Cytotoxicity in human SH-SY5Y cells assessed as decrease in cell viability at 10 uM; format: toxicity, cell-based
[7] = filed as positive allosteric modulator

| SMILES | pEC50 [1] | Emax [2, 7] | pEC50 [3] | further results |
| --- | --- | --- | --- | --- |
| CNC(=O)C(Nc1cc(C)nc2c(-c3ccccn3)cnn12)c1ccc(F)cc1 (racemic) | 7.11 | 75% | < 4.57 |  |
| N#Cc1ccc(N2CCN(Cc3cn4cc(Cl)ccc4n3)CC2)nc1 | 5.20 | 48% |  |  |
| CNc1cc(-c2ccccn2)nc(NC2CCCCC2)n1 | < 4.50 |  | 6.31 | Emax [4]: 88% |
| Cc1cc(N2CCCC2c2cccnc2)n2ncc(-c3ccccn3)c2n1 (single isomer, unassigned; enantiomer 1) [listing 1 of 2 here] |  | 58% |  |  |
| NC(Cc1cnc[nH]1)c1nc2ccc(-c3ccccc3)cc2c(=O)[nH]1 (stereo not drawn) | < 4.30 |  | 6.60 | Emax [4]: 102% |
| Cc1cc(NC(C)c2ccc(F)cc2)n2ncc(-c3ccccn3)c2n1 (single isomer, unassigned; enantiomer 2) [listing 1 of 2 here] |  | 68% |  | Activity (SH-SY5Y [5]): Active |
| Cc1cc(N2CCCC2c2cccnc2)n2ncc(-c3ccccn3)c2n1 (single isomer, unassigned; enantiomer 1) [listing 2 of 2 here] | 7.10 |  | < 4.57 |  |
| Cc1cc(N2CCC(c3ccccc3)C2)n2ncc(-c3ccccn3)c2n1 (single isomer, unassigned; enantiomer 1) [listing 1 of 2 here] | < 5.00 |  | 6.85 |  |
| Cc1cc(N2CCC(c3ccccc3)C2)n2ncc(-c3ccccn3)c2n1 (single isomer, unassigned; enantiomer 1) [listing 2 of 2 here] |  |  |  | Emax [4]: 65% |
| Cc1cc(N2CCC(c3ccccc3)C2)n2ncc(-c3ccccn3)c2n1 (single isomer, unassigned; enantiomer 2) [listing 1 of 2 here] |  |  | 6.56 | pEC50 ([1]; cho): < 5.00 |
| Cn1cc(-c2ccc3nc(C(N)CCOCc4ccccc4)[nH]c(=O)c3c2)cn1 (stereo not drawn) | < 4.30 |  | 6.19 | Emax [4]: 83% |
| CNc1nc(Oc2ccccc2)cc(-c2ccccn2)n1 | 6.32 | 58% | 7.64 | Emax [4]: 48% |
| Cc1cc(N2CCCC2c2cccnc2)n2ncc(-c3ccccn3)c2n1 (single isomer, unassigned; enantiomer 2) [listing 1 of 2 here] | 6.62 |  |  | pEC50 ([3]; cho): < 4.57 |
| Cc1cc(N2CCCC2c2cccnc2)n2ncc(-c3ccccn3)c2n1 (single isomer, unassigned; enantiomer 2) [listing 2 of 2 here] |  | 64% |  |  |
| Cc1cc(N2CCC(c3ccccc3)C2)n2ncc(-c3ccccn3)c2n1 (single isomer, unassigned; enantiomer 2) [listing 2 of 2 here] |  |  |  | Emax [4]: 54% |
| Cc1cc(N2C(=O)CCC2c2ccccc2)n2ncc(-c3ccccn3)c2n1 (racemic) | < 4.50 |  | < 4.57 |  |
| Cc1cc(NC(C)c2ccc(F)cc2)n2ncc(-c3ccccn3)c2n1 (single isomer, unassigned; enantiomer 1) [listing 2 of 2 here] |  | 51% |  |  |
| O=C(Cc1nn(CC2CCC2)c(=O)c2ccccc12)NCc1ccccn1 | < 4.30 |  | 5.39 | Emax [4]: 49% |

Further compounds by rising pEC50 [1], results first:

| pEC50 [1] | Emax [2, 7] | pEC50 [3] | SMILES | further results |
| --- | --- | --- | --- | --- |
| 7.20 |  | < 4.57 | Cc1cc(NC(C)(C)c2ccc(F)cc2)n2ncc(-c3ccccn3)c2n1 | Emax [2]: 38% |
| 7.59 |  |  | Cc1cc(NC(C)c2ccc(F)cc2)n2ncc(-c3ccccn3)c2n1 (single isomer, unassigned; enantiomer 2) [listing 2 of 2 here] | pEC50 ([3]; cho): < 4.57; Activity (SH-SY5Y [6]): Toxic |
| 7.77 |  | < 4.57 | Cc1cc(N2CCCC2c2ccccc2)n2ncc(-c3ccccn3)c2n1 (racemic) | Emax [2]: 36% |
| 7.77 |  | < 4.57 | Cc1cc(NC(C)c2ccc(F)cc2)n2ncc(-c3ccccn3)c2n1 (single isomer, unassigned; enantiomer 1) [listing 1 of 2 here] |  |
| 7.80 | 49% | < 4.57 | CNc1nc(NC2CCCCC2)cc(-c2ccccn2)n1 |  |
| 7.82 | 84% | < 4.57 | CNc1nc(NCc2ccc(NS(C)(=O)=O)cc2Cl)cc(-c2ccccn2)n1 | Activity (SH-SY5Y [5]): Active; Activity (SH-SY5Y [6]): Toxic |
| 7.82 | 57% | < 4.57 | Cc1cc(NCc2ccc(F)cc2)n2ncc(-c3ccccn3)c2n1 |  |
| 8.52 | 86% | < 4.57 | CNc1nc(NCc2ccccc2Cl)cc(-c2ccccn2)n1 |  |
